# Patent US11618747B2, “LXR modulators with bicyclic core moiety” (OrsoBio, Inc., priority 2018, dated 2023)
# Molecular target: T1, LXRβ ligand-binding domain (Homo sapiens, UniProt P55055, DUP175-175)
# T1 construct: amino acids 156-461; NP009052; made in house; host or cells: E. coli
# T1 sequence (P55055 with tags, fused parts or gaps DUP175-175 limits assumed): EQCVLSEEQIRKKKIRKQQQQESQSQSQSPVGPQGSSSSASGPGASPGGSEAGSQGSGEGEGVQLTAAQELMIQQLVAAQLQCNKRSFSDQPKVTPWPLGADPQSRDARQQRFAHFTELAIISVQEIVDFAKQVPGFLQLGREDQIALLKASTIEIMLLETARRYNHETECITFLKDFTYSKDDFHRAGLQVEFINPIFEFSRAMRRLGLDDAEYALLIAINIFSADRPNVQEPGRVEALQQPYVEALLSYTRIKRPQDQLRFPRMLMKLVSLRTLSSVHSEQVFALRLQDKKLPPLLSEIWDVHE
# Experiment: TR-FRETβ activity assay (NCoA3 coactivator peptide recruitment)
# Format: biochemical
# Details: TR-FRET, 1 μM 24(S)-25-epoxycholesterol prestimulation; read-out: FRETβ (EC50 range)
# Summary of the method: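 Inverse agonism assessed by loss of coactivator recruitment, read as TR-FRET 665/615 nm after 1 h equilibration at 4 °C, in triplicate. Ten-point titration from 50 μM to 0.002 μM against LXRβ LBD (76 nM, GST fusion) prestimulated with 1 μM 24(S)-25-epoxycholesterol, with 400 nM NCoA3 peptide, pH 6.8. Sulfonyl acetic acids kept as 20 mM DMSO stocks with 100 mM TFA.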
row,Structure (SMILES),EC50 [nM]
1,COc1cc(-c2c(-c3cccc(-c4ccc(C(=O)O)cc4Cl)c3)n(S(=O)(=O)c3ccc(C(F)F)cc3)c3ccc(F)cc23)c2c(C#N)cnn2c1 [11/46],< 100
2,Cn1cccc(-c2c(-c3cccc(-c4ccc(C(=O)O)cc4Cl)c3)n(S(=O)(=O)c3ccc(C(F)F)cc3)c3ccc(F)cc23)c1=O [11/47],100 to 1000
3,N#Cc1cccc(C#N)c1-c1c(-c2cccc(-c3ccc(C(=O)O)c(F)c3F)c2)n(S(=O)(=O)c2ccc(C(F)F)cc2)c2ccc(F)cc12 [11/52],< 100
4,N#Cc1cccc(C#N)c1-c1c(-c2cccc(-c3c(F)c(F)c(C(=O)O)c(F)c3F)c2)n(S(=O)(=O)c2ccc(C(F)F)cc2)c2ccc(F)cc12 [11/54],< 100
5,N#Cc1cccc(C#N)c1-c1c(-c2cccc(-c3ccc(C(=O)O)cc3Cl)c2)n(S(=O)(=O)c2ccc(Cl)cc2)c2ccc(F)cc12 [11/55],< 100
6,N#Cc1cccc(C#N)c1-c1c(-c2cccc(-c3ccc(C(=O)O)cc3Cl)c2)n(S(=O)(=O)c2ccc(C(F)F)cc2)c2ccccc12 [11/56],< 100
7,N#Cc1sccc1-c1c(-c2cccc(-c3ccc(C(=O)O)cc3Cl)c2)n(S(=O)(=O)c2ccc(C(F)F)nc2)c2ccc(F)cc12 [11/57],< 100
8,N#Cc1cccc(C#N)c1-c1c(-c2cccc(C34CCC(C(=O)O)(CC3)CC4)c2)n(S(=O)(=O)c2ccc(C(F)F)cc2)c2ccc(F)cc12 [11/58],< 100
9,CC(O)(C(=O)O)c1ccc(-c2cccc(-c3c(-c4c(C#N)cccc4C#N)c4cc(F)ccc4n3S(=O)(=O)c3ccc(C(F)F)cc3)c2)cc1 (stereo not drawn) [11/59],< 100
10,N#Cc1cccc(C#N)c1-c1c(-c2cccc([C@H]3CC[C@@H](C(=O)O)CC3)c2)n(S(=O)(=O)c2ccc(C(F)F)cc2)c2ccc(F)cc12 [11/61],100 to 1000
11,N#Cc1cccc(C#N)c1-c1c(-c2cccc(-c3ccc(C(=O)O)cc3F)c2)n(S(=O)(=O)C2CCC(C(F)(F)F)CC2)c2ccc(F)cc12 (stereo not drawn) [11/64],100 to 1000
12,N#Cc1cccc(C#N)c1-c1c(-c2cccc(-c3ccc(C(=O)O)cc3Cl)c2)n(S(=O)(=O)C2CC3CCC2C3)c2ccc(F)cc12 (stereo not drawn) [11/66],100 to 1000
13,N#Cc1cncc(C#N)c1-c1c(-c2cccc(-c3ccc(C(=O)O)cc3Cl)c2)n(S(=O)(=O)c2ccc(C(F)F)cc2)c2ccc(F)cc12 [11/67],100 to 1000
14,Cn1ccc(-c2c(-c3cccc(-c4ccc(C(=O)O)cc4Cl)c3)n(S(=O)(=O)c3ccc(C(F)F)cc3)c3ccc(F)cc23)c1C#N [11/68],< 100
15,O=C(O)C1CC1c1cccc(-c2c(-c3c(Cl)cccc3Cl)c3cc(F)ccc3n2S(=O)(=O)c2ccc(C(F)F)cc2)c1 (stereo not drawn) [11/69],< 100
16,Cc1ccc(S(=O)(=O)n2c(-c3cccc(-c4ccc(C(=O)O)c(C)c4Cl)c3)c(-c3ccsc3C#N)c3cc(F)ccc32)cc1 [12/1],100 to 1000

# Molecular target: T2, full length (FL) LXRα (Homo sapiens, UniProt Q13133)
# T2 construct: the full length (FL) proteins of LXRα (amino acids 1-447); NP005684; expressed in transfected cells; host or cells: HEK293
# T2 sequence (Q13133 1-447): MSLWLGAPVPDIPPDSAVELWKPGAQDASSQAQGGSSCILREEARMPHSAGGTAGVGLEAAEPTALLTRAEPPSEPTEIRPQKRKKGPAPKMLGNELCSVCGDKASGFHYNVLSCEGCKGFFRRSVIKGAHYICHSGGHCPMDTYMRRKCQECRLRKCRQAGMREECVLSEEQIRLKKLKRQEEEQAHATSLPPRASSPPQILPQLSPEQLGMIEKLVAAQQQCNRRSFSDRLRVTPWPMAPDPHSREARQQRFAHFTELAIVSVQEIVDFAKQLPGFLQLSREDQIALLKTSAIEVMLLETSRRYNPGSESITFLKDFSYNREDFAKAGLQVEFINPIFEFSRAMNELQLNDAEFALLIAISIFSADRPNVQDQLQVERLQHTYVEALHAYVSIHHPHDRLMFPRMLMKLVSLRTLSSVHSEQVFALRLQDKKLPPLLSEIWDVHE
# Experiment: LXR Gal4 reporter transient transfection assay (FL-M2H Gal4α)
# Format: cell-based
# Details: HEK293 cells, full length LXRα; read-out: FL-M2H Gal4α (EC50 range)
# Summary of the method: (§1)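 Luminescence readout: Firefly luciferase driven by GAL4 response elements reports LXR–cofactor interaction, normalised against cotransfected Renilla luciferase. The system used HEK293 cells expressing LXR full length or ligand-binding domain fused to the NFkB activation domain, with SRC1 or NCoR domains on GAL4 DBD; compound exposure was 16 h.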
row,Structure (SMILES),EC50 [nM]
1,COc1cc(-c2c(-c3cccc(-c4ccc(C(=O)O)cc4Cl)c3)n(S(=O)(=O)c3ccc(C(F)F)cc3)c3ccc(F)cc23)c2c(C#N)cnn2c1 [11/46],< 100
2,Cn1cccc(-c2c(-c3cccc(-c4ccc(C(=O)O)cc4Cl)c3)n(S(=O)(=O)c3ccc(C(F)F)cc3)c3ccc(F)cc23)c1=O [11/47],100 to 1000
3,N#Cc1cccc(C#N)c1-c1c(-c2cccc(-c3ccc(C(=O)O)c(F)c3F)c2)n(S(=O)(=O)c2ccc(C(F)F)cc2)c2ccc(F)cc12 [11/52],< 100
4,N#Cc1cccc(C#N)c1-c1c(-c2cccc(-c3c(F)c(F)c(C(=O)O)c(F)c3F)c2)n(S(=O)(=O)c2ccc(C(F)F)cc2)c2ccc(F)cc12 [11/54],< 100
5,N#Cc1cccc(C#N)c1-c1c(-c2cccc(-c3ccc(C(=O)O)cc3Cl)c2)n(S(=O)(=O)c2ccc(Cl)cc2)c2ccc(F)cc12 [11/55],< 100
6,N#Cc1cccc(C#N)c1-c1c(-c2cccc(-c3ccc(C(=O)O)cc3Cl)c2)n(S(=O)(=O)c2ccc(C(F)F)cc2)c2ccccc12 [11/56],< 100
7,N#Cc1sccc1-c1c(-c2cccc(-c3ccc(C(=O)O)cc3Cl)c2)n(S(=O)(=O)c2ccc(C(F)F)nc2)c2ccc(F)cc12 [11/57],< 100
8,N#Cc1cccc(C#N)c1-c1c(-c2cccc(C34CCC(C(=O)O)(CC3)CC4)c2)n(S(=O)(=O)c2ccc(C(F)F)cc2)c2ccc(F)cc12 [11/58],< 100
9,CC(O)(C(=O)O)c1ccc(-c2cccc(-c3c(-c4c(C#N)cccc4C#N)c4cc(F)ccc4n3S(=O)(=O)c3ccc(C(F)F)cc3)c2)cc1 (stereo not drawn) [11/59],< 100
10,N#Cc1cccc(C#N)c1-c1c(-c2cccc([C@H]3CC[C@@H](C(=O)O)CC3)c2)n(S(=O)(=O)c2ccc(C(F)F)cc2)c2ccc(F)cc12 [11/61],< 100
11,N#Cc1cccc(C#N)c1-c1c(-c2cccc(-c3ccc(C(=O)O)cc3F)c2)n(S(=O)(=O)C2CCC(C(F)(F)F)CC2)c2ccc(F)cc12 (stereo not drawn) [11/64],< 100
12,N#Cc1cccc(C#N)c1-c1c(-c2cccc(-c3ccc(C(=O)O)cc3Cl)c2)n(S(=O)(=O)C2CC3CCC2C3)c2ccc(F)cc12 (stereo not drawn) [11/66],< 100
13,N#Cc1cncc(C#N)c1-c1c(-c2cccc(-c3ccc(C(=O)O)cc3Cl)c2)n(S(=O)(=O)c2ccc(C(F)F)cc2)c2ccc(F)cc12 [11/67],< 100
14,Cn1ccc(-c2c(-c3cccc(-c4ccc(C(=O)O)cc4Cl)c3)n(S(=O)(=O)c3ccc(C(F)F)cc3)c3ccc(F)cc23)c1C#N [11/68],< 100
15,O=C(O)C1CC1c1cccc(-c2c(-c3c(Cl)cccc3Cl)c3cc(F)ccc3n2S(=O)(=O)c2ccc(C(F)F)cc2)c1 (stereo not drawn) [11/69],< 100
16,Cc1ccc(S(=O)(=O)n2c(-c3cccc(-c4ccc(C(=O)O)c(C)c4Cl)c3)c(-c3ccsc3C#N)c3cc(F)ccc32)cc1 [12/1],< 100

# Molecular target: T3, full length (FL) LXRβ (Homo sapiens, UniProt P55055, DUP175-175)
# T3 construct: the full length (FL) proteins of LXRα (amino acids 1-447); NP005684; NP009052; expressed in transfected cells; host or cells: HEK293
# T3 sequence (P55055 with tags, fused parts or gaps DUP175-175): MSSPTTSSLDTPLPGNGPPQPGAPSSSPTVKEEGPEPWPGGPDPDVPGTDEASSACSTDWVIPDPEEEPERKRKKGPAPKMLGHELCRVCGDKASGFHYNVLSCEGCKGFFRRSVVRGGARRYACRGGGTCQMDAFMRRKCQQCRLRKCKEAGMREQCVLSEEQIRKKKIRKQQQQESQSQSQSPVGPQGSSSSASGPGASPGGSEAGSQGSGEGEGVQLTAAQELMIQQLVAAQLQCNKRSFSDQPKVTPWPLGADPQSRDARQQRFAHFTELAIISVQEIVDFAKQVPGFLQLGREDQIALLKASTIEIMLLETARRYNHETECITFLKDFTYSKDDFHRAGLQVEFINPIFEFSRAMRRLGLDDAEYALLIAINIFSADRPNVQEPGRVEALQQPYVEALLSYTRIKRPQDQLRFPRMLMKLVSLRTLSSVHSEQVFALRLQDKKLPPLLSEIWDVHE
# Experiment: LXR Gal4 reporter transient transfection assay (FL-M2H Gal4β)
# Format: cell-based
# Details: HEK293 cells, full length LXRβ; read-out: FL-M2H Gal4β (EC50 range)
# Summary of the method: as §1
row,Structure (SMILES),EC50 [nM]
1,COc1cc(-c2c(-c3cccc(-c4ccc(C(=O)O)cc4Cl)c3)n(S(=O)(=O)c3ccc(C(F)F)cc3)c3ccc(F)cc23)c2c(C#N)cnn2c1 [11/46],< 100
2,Cn1cccc(-c2c(-c3cccc(-c4ccc(C(=O)O)cc4Cl)c3)n(S(=O)(=O)c3ccc(C(F)F)cc3)c3ccc(F)cc23)c1=O [11/47],100 to 1000
3,N#Cc1cccc(C#N)c1-c1c(-c2cccc(-c3ccc(C(=O)O)c(F)c3F)c2)n(S(=O)(=O)c2ccc(C(F)F)cc2)c2ccc(F)cc12 [11/52],< 100
4,N#Cc1cccc(C#N)c1-c1c(-c2cccc(-c3c(F)c(F)c(C(=O)O)c(F)c3F)c2)n(S(=O)(=O)c2ccc(C(F)F)cc2)c2ccc(F)cc12 [11/54],< 100
5,N#Cc1cccc(C#N)c1-c1c(-c2cccc(-c3ccc(C(=O)O)cc3Cl)c2)n(S(=O)(=O)c2ccc(Cl)cc2)c2ccc(F)cc12 [11/55],< 100
6,N#Cc1cccc(C#N)c1-c1c(-c2cccc(-c3ccc(C(=O)O)cc3Cl)c2)n(S(=O)(=O)c2ccc(C(F)F)cc2)c2ccccc12 [11/56],< 100
7,N#Cc1sccc1-c1c(-c2cccc(-c3ccc(C(=O)O)cc3Cl)c2)n(S(=O)(=O)c2ccc(C(F)F)nc2)c2ccc(F)cc12 [11/57],< 100
8,N#Cc1cccc(C#N)c1-c1c(-c2cccc(C34CCC(C(=O)O)(CC3)CC4)c2)n(S(=O)(=O)c2ccc(C(F)F)cc2)c2ccc(F)cc12 [11/58],< 100
9,CC(O)(C(=O)O)c1ccc(-c2cccc(-c3c(-c4c(C#N)cccc4C#N)c4cc(F)ccc4n3S(=O)(=O)c3ccc(C(F)F)cc3)c2)cc1 (stereo not drawn) [11/59],< 100
10,N#Cc1cccc(C#N)c1-c1c(-c2cccc([C@H]3CC[C@@H](C(=O)O)CC3)c2)n(S(=O)(=O)c2ccc(C(F)F)cc2)c2ccc(F)cc12 [11/61],< 100
11,N#Cc1cccc(C#N)c1-c1c(-c2cccc(-c3ccc(C(=O)O)cc3F)c2)n(S(=O)(=O)C2CCC(C(F)(F)F)CC2)c2ccc(F)cc12 (stereo not drawn) [11/64],< 100
12,N#Cc1cccc(C#N)c1-c1c(-c2cccc(-c3ccc(C(=O)O)cc3Cl)c2)n(S(=O)(=O)C2CC3CCC2C3)c2ccc(F)cc12 (stereo not drawn) [11/66],< 100
13,N#Cc1cncc(C#N)c1-c1c(-c2cccc(-c3ccc(C(=O)O)cc3Cl)c2)n(S(=O)(=O)c2ccc(C(F)F)cc2)c2ccc(F)cc12 [11/67],< 100
14,Cn1ccc(-c2c(-c3cccc(-c4ccc(C(=O)O)cc4Cl)c3)n(S(=O)(=O)c3ccc(C(F)F)cc3)c3ccc(F)cc23)c1C#N [11/68],< 100
15,O=C(O)C1CC1c1cccc(-c2c(-c3c(Cl)cccc3Cl)c3cc(F)ccc3n2S(=O)(=O)c2ccc(C(F)F)cc2)c1 (stereo not drawn) [11/69],< 100
16,Cc1ccc(S(=O)(=O)n2c(-c3cccc(-c4ccc(C(=O)O)c(C)c4Cl)c3)c(-c3ccsc3C#N)c3cc(F)ccc32)cc1 [12/1],< 100
